For 62 compounds, melting point results are on record in a melting point compilation (Tetko et al.; mined from patent text by program, amines drawn as free bases though some values may be those of a salt).

Some results are limits rather than exact numbers.

As for `CC(=O)N1CCN(c2ccc(-n3ccnc3)cc2)CC1`, the melting point is 181 to 182 °C. The result for `CCOc1ccc(-c2nc(-c3cccc(CO)n3)cs2)cc1OCC` reads 109 to 113 °C; that for `CCCCCN(CCC12CC3CC(CC(C3)C1)C2)C(=O)NCCc1cccnc1`, 112 to 114 °C; that for `O=C(O)Cc1ccc(Cl)cc1[N+](=O)[O-]`, 156 to 159 °C.

`OCc1ccc(C2CCCc3cncn32)cc1` (configuration not stated) yielded a melting point of 142 to 145 °C.

`O=c1[nH]c(Cc2ccccc2)no1` gave a melting point of 114 to 116 °C. The result for `CCN(CC)CCNc1cc(Cl)c(N)c(CCN(CC)CC)c1[N+](=O)[O-]` reads 90 °C.

On to `COc1ccc([N+](=O)[O-])c(OC2CCOC2=O)c1` (configuration not stated), for which the melting point is 109 to 110 °C. Next, `CS(=O)(=O)OCC[C@H](CCCCC(=O)O)OS(C)(=O)=O`: 54 to 55 °C; `CNC(=O)C1CCC(c2csc(NC(=N)N)n2)C1` (configuration not stated): 216 to 218 °C; `COc1c(NC(=O)c2ccc(Br)cc2)ccc2cc(CN3CCCC3)cnc12`: 121 to 122 °C. The result for `O=C(CCc1cnoc1-c1ccccc1)Nc1cnccn1` reads 163 to 164 °C. Next, `O=C(Nc1cc(S(=O)(=O)N2CCC(O)C2)sc1Cl)c1cnn2c(C(F)(F)F)cc(-c3ccc(C(F)(F)F)cc3)nc12` (racemic): 270 °C; `COCCOc1cc2ncnc(Nc3cc(O)c(Cl)cc3F)c2cc1OC`: over 250 °C. Consider `CCCOc1ccccc1-c1nc2nc(S(C)(=O)=O)ncc2c(=O)[nH]1`, for which the melting point lay within 217 to 219 °C. Next, `C=CCC(N)(c1ccccc1)C(O)c1ccccc1` (configuration not stated): 85 to 86 °C. `COC1=C(c2cccc(C(F)(F)F)c2)C(=O)OC1` came in with a melting point of 126 °C. The result for `O=C1c2ccccc2C(=O)N1c1cccc(CBr)n1` reads 169 to 170 °C. The result for `CCN1C(=O)C2CC(c3ccc([N+](=O)[O-])cc3)(C2)C1=O` reads 175 to 179 °C; that for `CCOC(=O)C1=Cc2cc(Cl)c(C)c(Cl)c2OC1C(F)(F)F` (configuration not stated), 117 to 120 °C. The result for `COc1ccc2cc3c(c(-c4ccc(F)cc4)c2c1)C(=O)NC3=O` reads 281 to 284 °C; that for `O=C1c2ccccc2C(F)(F)C(F)(F)c2ccccc21`, 70 to 75 °C. The compound `CCOC(=O)CC(=O)c1cc2cc(F)c(Cl)cc2nc1Cl` showed a melting point of 112 to 114 °C. The result for `CCCc1nc2c(N)nc3cc(OCc4cccc([N+](=O)[O-])c4)ccc3c2n1CC(C)C` reads 175 to 176 °C; that for `COCCOc1ccc(CCCNS(=O)(=O)Cc2ccccc2)c(Oc2ncc(C(F)(F)F)cc2Cl)c1`, 97 to 100 °C; that for `CCCC(=O)c1cnc2c(F)cccc2c1Nc1ccc(O)cc1C`, 205 to 207 °C. Compound `[N-]=[N+]=NC1CC(n2cc(Cl)c(=O)[nH]c2=O)OC1CO` (configuration not stated) yielded a melting point of 65 °C.

For `O=C(O)c1cc2ccccc2n1Cc1cc([N+](=O)[O-])cc2[nH]c(=O)c(=O)[nH]c12`, the melting point is over 300 °C. Compound `O=C1N(CO)CCN1CCN1CCC(c2cn(-c3ccc(F)cc3)c3ccc(Cl)cc23)CC1` yielded a melting point of 118 to 119 °C. `O=C(OCc1cc(OCCCO)cc(OCCCO)c1)c1ccccc1` yielded a melting point of 78 to 82 °C.

`OCc1cccc(-c2cnc3cnc(-c4ccc(O)cc4)nc3c2)c1` returned a melting point of 232 °C. Next, `Cc1cc(C)c(N=c2cc(-c3ccc(O)c(O)c3)n(C)c(=O)n2C)c(C)c1`: 222 to 225 °C. Next, `CCCc1nc(NCCOC(C)=O)nc(N2CCOCC2)n1`: 94 to 95 °C; `COC(=O)c1ccc(OCC2CC(=O)N(c3ccc(OCC(C)C)cc3)C2)cc1` (configuration not stated): 118 °C. For the compound `COC(=O)C[C@H]1N=C(c2ccccc2Cl)c2cc(Cl)ccc2NC1=O`, the melting point was in the range of 168 to 170 °C. Turning to `O=C(Cc1cccnc1)N1CCC(C2=c3ccc(Cl)cc3=CCc3c(Cl)ccnc32)CC1`, the melting point was 100 to 103 °C. The result for `COC(=O)c1nc(C)c2[nH]c3ccccc3c2c1I` reads 280 to 286 °C; that for `Cn1cc(-c2cccc(N3Cc4cc(C(C)(C)C)ccc4C3=O)c2CO)cc(Nc2ccn(C3CC3)n2)c1=O`, 173 to 175 °C; that for `CCS(=O)(=O)c1ccc(C(=O)O)c(Cl)c1O`, 188 to 192 °C. Next, `N#CN=C(NCCSCc1nccs1)NCCSCc1nccs1`: 66 to 68 °C; `Cc1cc(Nc2c(C#N)cnc3cc(-c4csc(CN5CCOCC5)c4)ccc23)ccc1OCc1ccccn1`: 217 to 219 °C.

In the case of `CSc1cn(C)c2cc(-c3cccc(Cl)c3)sc2c1=O`, the melting point lay in the range of 234 to 236 °C.

`C=Cc1ccc(CC(N)=O)nc1` came in with a melting point of 120 to 121 °C. Next, `Cc1cc2c(-c3cccc(C(F)(F)F)c3)nc(-c3ccc(C(F)(F)F)cc3)nc2s1`: 134 to 136 °C; `COC(=O)CCCc1oc(Cl)nc1-c1ccc(Cl)cc1`: 73 to 74 °C; `CCCN(CCC)Cc1nnc(-c2ncn3c2CN(C)C(=O)c2c(Cl)cccc2-3)o1`: 188 to 195 °C.

For `O=C1COc2cc(NC(=O)C(=O)N3CCC(CCc4ccccc4)CC3)ccc2N1`, the melting point fell in the range of 128 to 132 °C.

Consider `OCCc1nccn1CCCCc1ccc(OCc2ccccc2)cc1`, for which the melting point was 75 to 77 °C. The result for `CCOC(=O)[C@H](Cc1cccc(C#N)c1)NS(=O)(=O)c1ccc2c(c1)CN(C(C)C)CC2` reads 110 °C. The result for `O=C(O)CCc1cccc(OCc2ccccc2Cl)c1OCc1ccccc1Cl` reads 131 to 132 °C; that for `O=C(Cc1ccc(Cl)cc1)Nc1cccc2nc(N[C@@H]3CCc4ccccc43)ccc12`, 170 °C.

Compound `CCOc1cc2c(=O)cc(C(=O)O)[nH]c2ccc1=O` had a melting point of over 280 °C. Next, `COC(=O)c1ccc(-c2ccc(-c3ccccc3)c(-c3ccc4c(c3)C(C)(C)CCC4(C)C)c2)c(OC)c1`: 144 to 146 °C; `CCOc1cc2c(cc1OCC)C1CN(C)CCC1N=C2c1ccc(C#N)cc1` (single isomer, unassigned; (-)): 141 °C. Next, `Cn1nnc(CN2CCC[C@@H](OCc3cc(C(F)(F)F)cc(C(F)(F)F)c3)[C@H]2c2ccccc2)n1` (relative stereo): 139 to 141 °C; `CCCCCCc1cc2c(s1)-n1c(C)nnc1CN=C2c1ccccc1OC`: 128 to 130 °C. The result for `OCc1ccc(-c2cn([C@H]3CN4CCC3CC4)nn2)cc1` reads 200 °C; that for `COc1ccc(C=C(c2ccc(OC)cc2)c2ccc(OC)cc2)cc1`, 100 to 101 °C; that for `CNCC1Cc2cc(Cl)cc(C3CCCCC3)c2O1` (configuration not stated), 125 to 128 °C.

Turning to `CCCN(Cc1csc(C(C)C)n1)C(=O)N[C@H](C(=O)N[C@@H](Cc1ccccc1)C[C@H](O)[C@H](Cc1ccccc1)NC(=O)OCc1cncs1)C(C)C`, the melting point fell in the range of 62 to 64 °C. For `CCOC(=O)C(=CNC1CC1)C(=O)c1c(F)cc(F)c(F)c1C`, the melting point lay in the range of 69 to 72 °C. `COc1cccc(C2(C(N)=O)CCCCC2)c1` yielded a melting point of 120 to 122 °C.

As usually defined, the melting point is the temperature of the solid-liquid transition.
